Measured values reported in patent publication US20190241822A1, “COMPOSITION FOR REMOVING IRON SULFIDE” (KURARAY CO., LTD., priority 2016, published 2019).
Like-named read-outs stand apart in the source and are kept apart here.

What was measured:
[1] = type: physicochemical; conditions: 50° C., nitrogen atmosphere; for content ratio, 2 hours elapsed / content ratio, 4 hours elapsed / content ratio, 6 hours elapsed / content ratio, 10 hours elapsed: GC with internal standard; for content ratio, 0 hour: content immediately after temperature rise defined as 100%
Method: 50 mL of each of SAL and acrolein was charged in three-necked flask, and the contents were subjected to temperature rise to 50° C. in a nitrogen atmosphere. On the occasion when the content of each of SAL and acrolein immediately after the temperature rise was defined as 100%, a change of the content ratio was observed according to the calibration curve method by means of gas chromatography with an internal standard.
Analysis instrument: GC-14A (available from Shimadzu Corporation) Detector: FID (hydrogen flame ionization detector)
Column used: DB-1701 (length: 50 m, film thickness: 1 pn, inner diameter: 0.32 mm) (available from Agilent Technologies)
Analysis conditions: Injection temperature: 250° C., detection temperature: 250° C.
Temperature rise conditions: 70° C.→(temperature rise at 5° C./min)→250° C.
Internal standard substance: Diglyme (diethylene glycol dimethyl ether)

Rat = conditions: cited from earlier work
[2] = Removal test of iron sulfide; conditions: for time elapsed until iron sulfide was dissolved and the reaction solution became colorless transparent: 1.5 mmol aldehyde, 0.5 mmol iron sulfide in 500 mL water, 50° C., 500 rpm
[3] = type: physicochemical; conditions: pH 1.7
Method: Each of SAL and acrolein was dissolved in 0.5 mol/L of phosphoric acid buffer solutions having a pH different from each other, thereby preparing 0.1 wt % solutions. 50 mL of each of the solutions was charged in a sample vial in a nitrogen atmosphere and stored at 23±2° C. On the occasion when the content of each of SAL and acrolein at the time of preparation was defined as 100%, a change of the content ratio was observed according to the absolute calibration curve by means of high-performance liquid chromatography analysis.
pH 1.7: 4.9 g of 75% phosphoric acid and 7.8 g of sodium dihydrogen phosphate dihydrate were dissolved in 200 mL of distilled water.
pH 6.2: 7.8 g of sodium dihydrogen phosphate dihydrate and 7.1 g of disodium hydrogen phosphate were dissolved in 200 mL of distilled water.
pH 8.1: 0.3 g of sodium dihydrogen phosphate dihydrate and 13.9 g of disodium hydrogen phosphate were dissolved in 200 mL of distilled water.
Analysis instrument: Prominence System (available from Shimadzu Corporation)
Column used: Cadenza CD-C18 (length: […], inner diameter: 4.6 mm)
Developing solution: H2O/MeOH=45/55 (volume ratio), H3PO4=1 mol/L

[4] = upper respiratory tract; cited from earlier work

SMILES	content ratio, 2 hours elapsed [1]	content ratio, 4 hours elapsed [1]	content ratio, 6 hours elapsed [1]	content ratio, 10 hours elapsed [1]	content ratio, 0 hour [1]	ratio lost after elapsing 10 hours ([1]; acrolein contained hydroquinone as a stabilizer)	Acute toxicity, Rat LD50 (Rat; Rat)	time elapsed until iron sulfide was dissolved and the reaction solution became colorless transparent [2]	pH stability as compared with acrolein [3]	Acute toxicity, Rat LD50 (Rat; rat, in vivo)	GHS Classification (under Permissible Exposure Limit) [4]	iron sulfide removal ability ([2]; compared with acrolein)
C=CC=O [Acrolein, acrolein, reference compound]	99.5%	98.3%	98.1%	96.6%	100.0%	3.4%	Rat LD50: 42 mg/kg	4 h				
CC(C)=CCCC(C)=CC=O [Citral, 3,7-dimethyl-2,6-octadienal]								7 h				
CC(C)=CC=O [SAL, 3-methyl-2-butenal]	100.0%	100.0%	100.0%	99.9%	100.0%			4 h	extremely high in the pH stability as compared with acrolein	Rat LD50: 690 mg/kg	GHS Classification; Section 1 (upper	equivalent to acrolein
